The numbers were not newly measured in patent publication US9907754B2 (VECTURA LIMITED, priority 2013, dated 2018), which cites them from elsewhere.

For series [1] the following is noted: EFSA; no indications of inhalation toxicity or intolerability.
For series [2] the following is noted: henderson-hasselbalch (1908).

Where only a bound is given, the exact number is not on record here.

On to `OC[C@@H](O)[C@@H](O)[C@H](O)[C@H](O)CO` [Mannitol], for which the “water pick up, % of mass” value (humidity >70% RH) is reported as 10%. Further, the moisture pick up entry (relative humidity as high as 70%) was “less than 1%”.

As for `NCCS(=O)(=O)O` [Taurine, 2-aminoethanesulfonic acid], in series [1], the tolerable dose was > 1000 mg/kg/day. In addition, the “pKa of the sulphur-hydryl group” value in series [2] is on record as 1.49.
